We go through three compounds from patent US12708604B2, “Lyophilized preparation of prostaglandin E1 methyl ester for injection and production and use thereof” (Xi'an Hanfeng Pharmaceutical Co., Ltd., priority 2018, dated 2026).

Assay [1] concerns ADP-induced platelet aggregation. Description: Anti-platelet aggregation test in vitro (ADP-induced, rat platelet-rich plasma). Type of assay: cell-based, SD rats. Particulars: for inhibition at 100 µM: Platelet, 2 μL of 100 μM compound in 300 μL rat PRP, read-out: inhibition rate on ADP-induced platelet aggregation; for onset of anti-aggregation effect after addition to PRP: immediately after addition. The protocol: When healthy adult SD rats were anesthetized by intraperitoneal injection of 10% chloral hydrate, fresh whole blood was collected from the abdominal aorta and added to a centrifuge tube anticoagulated with 3.8% sodium citrate solution, and centrifuged at 900 rpm for 10 minutes to remove the upper platelet-rich plasma (PRP) for use. The tube having PRP removed was further centrifuged at 4000 rpm for 10 minutes, and the upper clarified plasma (PPP) was removed for use. In the experiment, Techlink model LBY-NJ4 4-channel platelet aggregator was used to determine the anticoagulant efficacy of each compound.
Into a sample cup containing 300 μL of PRP, 2 μL of 100 μM PGE1, Compound 1 of Example, Compound 2 of Example and methanol (solvent) were first added. After incubated for different periods (0, 1, 2, 4, 7, 10, 15 min), […], of aggregation inducer 180 μM ADP solution was added. The aggregation rate of each sample was measured, and the inhibitory rate of the compound on ADP-induced platelet aggregation was calculated. Inhibition rate %=(solvent aggregation rate−compound aggregation rate)/solvent aggregation rate×100%

Assay [2] deals with isolated rabbit blood vessels (thoracic aorta vascular ring). Put plainly: Vasodilation test in vitro (isolated aortic ring). It counts as cell-based, New Zealand white rabbits. As to conditions: Oryctolagus cuniculus; cumulative addition 0.05-25.6 nM; read-out: diastolic efficacy on isolated rabbit blood vessels, EC50. How it is done: In the experiment, rabbits were selected to prepare isolated aortic ring specimens: New Zealand white rabbits, male, weighing (2.5±0.3) kg. The rabbit was stunned with a blunt instrument, fixed on the rabbit dissecting table, and the thoracic aorta was quickly separated, and placed in a petri dish filled with saturated Kerbs solution (containing NaCl 6.9 g, KCl 0.35 g, MgSO4.7H2O 0.29 g, KH2PO4 0.16 g, NaHCO3 2.1 g, CaCl2 0.28 g, glucose 2 g per 1000 mL) at 37° C. and continuously introduced with mixed gas (95% O2, 5% CO2). The remaining blood in the blood vessel was squeezed out, and the peripheral fat and connective tissue were carefully peeled off, and it was cut into 0.5 cm long arterial rings for use. […]
BL-420S biological function experiment system (Chengdu Techman Technology) was used to record the variation of vascular ring tension. After the vascular ring contraction was stable, prostaglandin E1 and the compounds of the Examples were accumulatively added to successively increase the final mass concentration of prostaglandin E1 in the bath tube to 0.05, 0.1, 0.2, 0.4, 0.8, 1.6, 3.2, 6.4, 12.8, 25.6 nM, and the diastolic efficacies of the vascular ring were recorded.

The mark [3] stands for this setting: 10 min, after 10 minutes of incubation.

Usually inhibition stands for how much of the control response was suppressed. Broadly, the EC50 is the concentration that produces a half-maximal response.

Where two headings read alike, the source gives them in different places.

Regarding `CCCCC[C@H](O)/C=C/[C@H]1[C@H](O)CC(=O)[C@@H]1CCCCCCC(=O)OC` [Compound 1], in assay [1] (setting [3]), the inhibition at 100 µM was 43.7%. In addition, the “onset of anti-aggregation effect after addition to PRP” value (“onset of anti-aggregation effect” for short) in assay [1] (rat PRP) is “take effect immediately”. Moreover, in assay [1] (rat PRP, versus PGE1), the “duration of anticoagulant effect relative to PGE1” value worked out at 2 times. Also, in assay [2], the EC50 was 1.09 nM.

`CCCCC[C@H](O)/C=C/[C@H]1[C@H](O)CC(=O)[C@@H]1CCCCCCC(=O)OCC` [Compound 2]: in assay [1] (setting [3]), the inhibition at 100 µM turned out to be 51.9%. Also, the “onset of anti-aggregation effect” value in assay [1] (rat PRP) is on record as “does not take effect immediately”.

Turning to `CCCCC[C@H](O)/C=C/[C@H]1[C@H](O)CC(=O)[C@@H]1CCCCCCC(=O)O` [PGE1, Prostaglandin E1], the inhibition at 100 µM in assay [1] (4 min, after 4 minutes of incubation) stood at 4.93%. For the same compound, the “onset of anti-aggregation effect” value in assay [1] (rat PRP) is reported as “take effect immediately”. In assay [2], the EC50 is 9.77 nM.
